≈ marks a conversion by molar mass, not a printed value. Where a SMILES comes first, the peptide text is derived from it. [ ]: non-standard residue; d: D form.
Legend:
[1] = tested on: E. coli; test: microbe, parasite or virus in culture; format: cell-based, Escherichia coli; settings: 16 h
Outline: (§1)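 Each strain is brought to 2×10^6 CFU in nutrient-sufficient Mueller-Hinton medium and dispensed into wells. Peptide solutions, stepwise diluted 2:1 in the same medium, are then added. The minimal concentration preventing growth gives the MIC.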

[2] = tested on: MDREC 1229; test: microbe, parasite or virus in culture; format: cell-based, Escherichia coli
Outline: as §1

[3] = tested on: P. aeruginosa; test: microbe, parasite or virus in culture; format: cell-based, Pseudomonas aeruginosa
Outline: as §1

[4] = tested on: MDRST 8009; format: cell-based, Salmonella typhimurium; settings: agent alone
Outline: as §1

[5] = tested on: B. subtilis; test: microbe, parasite or virus in culture; format: cell-based, Bacillus subtilis
Outline: as §1

[6] = tested on: S. epidermidis; test: microbe, parasite or virus in culture; format: cell-based, Staphylococcus epidermidis
Outline: as §1

[7] = tested on: E. coli; test: MIC of antibiotic during combined treatment with antimicrobial peptide; format: cell-based, Escherichia coli; settings: for Antibiotic MIC, Erythromycin / Antibiotic MIC, Linezolid / Antibiotic MIC, Vancomycin: E. coli
Outline: (§2)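 Using MH broth, we determined combination MICs by titrating the antibiotic into wells and then repeating under the reverse dilution scheme.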

[8] = tested on: MDREC 1229; test: as above; format: cell-based, Escherichia coli
Outline: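 Broth microdilution in MH medium; strains were diluted to 2×10^6 CFU per ml before plating. Peptide was serially diluted stepwise at 2:1 starting from its MIC, and MH-diluted antibiotic was then added to determine MIC. The reversed arrangement was also tested.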

[9] = tested on: A. baumannii; test: as above; format: cell-based, Acinetobacter baumannii
Outline: as §2

[10] = peptide treatment concentration 1 μg/ml
[11] = peptide treatment concentration 2 μg/ml
[12] = peptide treatment concentration 4 μg/ml
[13] = peptide treatment concentration 6 μg/ml
[14] = peptide treatment concentration 8 μg/ml
[15] = peptide treatment concentration 16 μg/ml
[16] = peptide treatment concentration 32 μg/ml
[17] = peptide treatment concentration 64 μg/ml
[18] = A. baumannii, combined with peptide at 1 μg/ml

SMILES: CC[C@H](C)[C@H](NC(=O)[C@H](CCCCN)NC(=O)[C@H](Cc1c[nH]c2ccccc12)NC(=O)[C@@H](N)CCCNC(=N)N)C(=O)N[C@@H](Cc1ccccc1)C(=O)N[C@@H](CCCCN)C(=O)N[C@@H](CCCCN)C(=O)N[C@H](C(=O)N[C@H](CCCCN)C(=O)N[C@@H](CCCCN)C(=O)N[C@@H](CC(C)C)C(=O)N[C@@H](CC(C)C)C(=O)N[C@@H](Cc1c[nH]cn1)C(=O)N[C@@H](CCCCN)C(=O)N[C@@H](Cc1ccccc1)C(=O)N[C@@H](CCCCN)C(=O)N[C@@H](CCCCN)C(=O)N[C@@H](Cc1ccccc1)C(N)=O)[C@@H](C)CC [PapMA-17, RWK IFK KIk KLL HKF KKF-NH2] (H-RWKIFKKI[dK]KLLHKFKKF-NH2; N-terminus assumed)
- Minimal inhibitory concentration MIC [1]: 16 µg/mL (≈ 6.62 µM)
- Minimal inhibitory concentration MIC [2]: 16 µg/mL (≈ 6.62 µM)
- Peptide MIC, peptide alone [2]: 16 µg/mL
- Minimal inhibitory concentration MIC [3]: 16 µg/mL (≈ 6.62 µM)
- Minimal inhibitory concentration MIC [4]: 64 µg/mL (≈ 26.5 µM)
- Minimal inhibitory concentration MIC [5]: >128 µg/mL
- Minimal inhibitory concentration MIC [6]: >128 µg/mL
- Synergistic effect of antibacterial activity with existing antibiotics compared with PapMA-1 ([7]; E. coli and MDREC1229): higher level than the PapMA-1 peptide
- Antibiotic MIC, Erythromycin ([7]; erythromycin combined with peptide at 1 μg/ml): 128 µg/mL
- Antibiotic MIC, Erythromycin ([7]; erythromycin combined with peptide at 2 μg/ml): 16 µg/mL
- Antibiotic MIC, Erythromycin ([7]; erythromycin combined with peptide at 4 μg/ml): 8 µg/mL
- Antibiotic MIC, Erythromycin ([7]; erythromycin combined with peptide at 6 μg/ml): 2 µg/mL
- Antibiotic MIC, Erythromycin ([7]; erythromycin combined with peptide at 8 μg/ml): 1 µg/mL
- Antibiotic MIC, Erythromycin ([7]; erythromycin combined with peptide at 16 μg/ml): 0 µg/mL
- Antibiotic MIC, Erythromycin ([7]; erythromycin combined with peptide at 32 μg/ml): 0 µg/mL
- Antibiotic MIC, Erythromycin ([7]; erythromycin combined with peptide at 64 μg/ml): 0 µg/mL
- Antibiotic MIC, Linezolid ([7]; linezolid combined with peptide at 1 μg/ml): >128 µg/mL
- Antibiotic MIC, Linezolid ([7]; linezolid combined with peptide at 2 μg/ml): >128 µg/mL
- Antibiotic MIC, Linezolid ([7]; linezolid combined with peptide at 4 μg/ml): 32 µg/mL
- Antibiotic MIC, Linezolid ([7]; linezolid combined with peptide at 6 μg/ml): 16 µg/mL
- Antibiotic MIC, Linezolid ([7]; linezolid combined with peptide at 8 μg/ml): 8 µg/mL
- Antibiotic MIC, Linezolid ([7]; linezolid combined with peptide at 16 μg/ml): 0 µg/mL
- Antibiotic MIC, Linezolid ([7]; linezolid combined with peptide at 32 μg/ml): 0 µg/mL
- Antibiotic MIC, Linezolid ([7]; linezolid combined with peptide at 64 μg/ml): 0 µg/mL
- Antibiotic MIC, Vancomycin ([7]; vancomycin combined with peptide at 1 μg/ml): >128 µg/mL
- Antibiotic MIC, Vancomycin ([7]; vancomycin combined with peptide at 2 μg/ml): >128 µg/mL
- Antibiotic MIC, Vancomycin ([7]; vancomycin combined with peptide at 4 μg/ml): 128 µg/mL
- Antibiotic MIC, Vancomycin ([7]; vancomycin combined with peptide at 6 μg/ml): 32 µg/mL
- Antibiotic MIC, Vancomycin ([7]; vancomycin combined with peptide at 8 μg/ml): 16 µg/mL
- Antibiotic MIC, Vancomycin ([7]; vancomycin combined with peptide at 16 μg/ml): 0 µg/mL
- Antibiotic MIC, Vancomycin ([7]; vancomycin combined with peptide at 32 μg/ml): 0 µg/mL
- Antibiotic MIC, Vancomycin ([7]; vancomycin combined with peptide at 64 μg/ml): 0 µg/mL
- Antibiotic MIC, Erythromycin [8, 10]: >128 µg/mL
- Antibiotic MIC, Linezolid [8, 10]: >128 µg/mL
- Antibiotic MIC, Vancomycin [8, 10]: >128 µg/mL
- Antibiotic MIC, Erythromycin [8, 11]: 32 µg/mL
- Antibiotic MIC, Linezolid [8, 11]: >128 µg/mL
- Antibiotic MIC, Vancomycin [8, 11]: >128 µg/mL
- Antibiotic MIC, Erythromycin [8, 12]: 16 µg/mL
- Antibiotic MIC, Linezolid [8, 12]: 64 µg/mL
- Antibiotic MIC, Vancomycin [8, 12]: 64 µg/mL
- Antibiotic MIC, Erythromycin [8, 13]: 8 µg/mL
- Antibiotic MIC, Linezolid [8, 13]: 16 µg/mL
- Antibiotic MIC, Vancomycin [8, 13]: 32 µg/mL
- Antibiotic MIC, Erythromycin [8, 14]: 4 µg/mL
- Antibiotic MIC, Linezolid [8, 14]: 16 µg/mL
- Antibiotic MIC, Vancomycin [8, 14]: 16 µg/mL
- Antibiotic MIC, Erythromycin [8, 15]: 0 µg/mL
- Antibiotic MIC, Linezolid [8, 15]: 0 µg/mL
- Antibiotic MIC, Vancomycin [8, 15]: 0 µg/mL
- Antibiotic MIC, Erythromycin [8, 16]: 0 µg/mL
- Antibiotic MIC, Linezolid [8, 16]: 0 µg/mL
- Antibiotic MIC, Vancomycin [8, 16]: 0 µg/mL
- Antibiotic MIC, Erythromycin [8, 17]: 0 µg/mL
- Antibiotic MIC, Linezolid [8, 17]: 0 µg/mL
- Antibiotic MIC, Vancomycin [8, 17]: 0 µg/mL
- Synergistic effect of antibacterial activity with existing antibiotics compared with PapMA-1 ([9]; A. baumannii and MDRAB 12035): level similar to that of PapMA-1 peptide
- Antibiotic MIC, Erythromycin [9, 18]: 32 µg/mL
- Antibiotic MIC, Linezolid [9, 18]: >128 µg/mL
- Antibiotic MIC, Vancomycin [9, 18]: >128 µg/mL
